In US5550110A, “Endothelin Antagonists II” (Warner-Lambert Company, priority 1994, dated 1996):
Peptide text beside a SMILES is read from it.

What was measured:
[1] = biological target: T1, endothelin receptor (ETB), rat cerebellar membranes (Rattus norvegicus, UniProt P21451); test: Endothelin Receptor Binding Assay-B (ERBA-B), [125I]-ET-1 binding in rat cerebellar membranes; settings: [125I]-ET-1 25 pM, read-out: ERRA-B IC50
T1 construct: thaw one aliquot of frozen rat cerebellar membranes (2 mg protein in 0.5 mL); from tissue; host or cells: rat cerebellum (membranes)
T1 sequence (P21451 27-442): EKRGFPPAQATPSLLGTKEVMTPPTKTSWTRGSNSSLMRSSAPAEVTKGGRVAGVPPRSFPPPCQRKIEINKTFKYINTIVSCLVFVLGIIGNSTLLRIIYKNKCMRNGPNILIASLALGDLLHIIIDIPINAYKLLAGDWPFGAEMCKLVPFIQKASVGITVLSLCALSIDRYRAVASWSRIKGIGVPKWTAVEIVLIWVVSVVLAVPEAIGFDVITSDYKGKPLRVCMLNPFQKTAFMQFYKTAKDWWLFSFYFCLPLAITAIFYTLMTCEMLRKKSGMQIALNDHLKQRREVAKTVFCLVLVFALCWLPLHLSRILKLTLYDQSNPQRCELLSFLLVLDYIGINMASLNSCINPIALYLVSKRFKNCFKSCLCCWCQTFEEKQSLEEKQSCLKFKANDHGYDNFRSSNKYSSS
Protocol: Endothelin Receptor Binding Assay-B (ERBA-B) [^125 I]-ET-1 Binding in Rat Cerebellar Membranes
The tissue is made up of 20 mM tris(hydroxymethyl)aminomethane hydrochloride (Trizma) buffer, 2 mM ethylenediaminetetra acetate, 100 μM phenylmethylsulfonyl fluoride.
First, thaw one aliquot of frozen rat cerebellar membranes (2 mg protein in 0.5 mL). Next, add 0.5 mL membrane aliquot to 4.5 mL cold tissue buffer, polytron at 7,500 revolutions per minute for 10 seconds. Finally, dilute tissue suspension 1/100 (0.1 mL suspension+9.9 mL tissue buffer), polytron again, and place ice.
Medium 199 with Hank's salts plus 25 mM Hepes+1 mg/mL bovine serum albumin.
Amersham [^125 I]-ET-1 (aliquots of 2×10^6 cpm per […] aliquot of [^125 I]-ET-1 with 5.2 mL dilution buffer, place on ice until use (final concentration will be 20,000 cpm per tube, or 25 pM).
Add 50 μL each of cold [^125 ]-ET-1 and competing ligand to tubes on ice. Mix in 150 μL of tissue to each tube, vortex briefly, then tap to force all liquids to bottom (total assay volume=250 μL). Then place the tubes in a 37° C. water bath for 2 hours.
Add 2.5 mL cold wash buffer (50 mM Trizma buffer) to each tube, filter, and then wash tube with additional 2.5 mL wash buffer and add to filter. Finally, wash filters with an additional 2.5 mL of cold wash buffer.
Count filters for radioactivity in gamma counter.

[2] = biological target: T2, human ETB receptor (cloned, CHO-K1 cells) (Homo sapiens, UniProt P24530); test: Human Endothelin Receptor Binding Assay-B (hERBA-B), binding to human cloned receptor; settings: membranes of transfected CHO-K1 cells
T2 construct: The 1.35 kb HindIII/XbaI restriction fragment of clone 12 of the hETBR was inserted into the eukaryotic expression vector pRcCMV; expressed in transfected cells; host or cells: CHO-K1
T2 sequence (P24530 27-442): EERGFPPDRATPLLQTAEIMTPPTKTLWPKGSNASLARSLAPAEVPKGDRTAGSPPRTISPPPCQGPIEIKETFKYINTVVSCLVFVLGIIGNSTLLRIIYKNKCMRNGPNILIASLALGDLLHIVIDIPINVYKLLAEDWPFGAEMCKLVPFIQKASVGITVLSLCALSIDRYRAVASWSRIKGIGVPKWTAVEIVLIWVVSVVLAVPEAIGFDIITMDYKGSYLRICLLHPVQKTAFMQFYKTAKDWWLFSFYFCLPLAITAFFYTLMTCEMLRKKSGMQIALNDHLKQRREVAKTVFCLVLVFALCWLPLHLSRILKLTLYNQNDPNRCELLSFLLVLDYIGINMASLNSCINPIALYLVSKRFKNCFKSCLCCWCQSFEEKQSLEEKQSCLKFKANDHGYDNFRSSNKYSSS
Protocol: Human Endothelin Receptor Biding Assay-B (hERBA-B) [^125 I]-ET-1 Binding to Human Cloned Receptor
A human placenta cDNA library was constructed in bacteriophage lambda gt11 and approximately 10^6 plaques were screened with a ^32 P-labelled 1.3 kilobase HindIII/XbaI restriction fragment of rat ETBR cDNA as a probe. Plaque hybridization was carried out for 16 hours at 42° C. in a solution containing 100 μg/mL calf thymus DNA, 1×Denhardt's solution, 5×sodium saline citrate (SSC), 50 mM sodium phosphate, and 0.1% sodium lauryl sulfate (SDS). The membranes were then washed twice for 30 minutes each in 2×SSC and 0.1% SDS at 42° C. A final wash was carried out in 0.5×SSC with 0.1% SDS at 55° C. The positive clones were purified and subcloned into a pUC19 plasmid. DNA sequencing was performed by the dideoxynucleotide chain termination method and human ETBR (h ETBR) was identified by reading both DNA strands.
The 1.35 kb HindIII/XbaI restriction fragment of clone 12 of the hETBR was inserted into the eukaryotic expression vector pRcCMV (pRcCMV-hETBR). CHO-K1 cells were transfected with 20 μg of pRcCMV-hETBR by electroporation at 300 V, 800 μF, low ohms for 1 second. […] Expression levels of human ETBR were determined by the receptor binding assay described below using [^125 I]-ET-3 as the radioligand. […]

SMILES	IC50 [1]	IC50 [2]
CC[C@H](C)[C@H](NC(=O)[C@H](CC(=O)O)NC(=O)[C@H](CC(C)C)NC(=O)[C@H](NC(C)=O)C1c2ccccc2CCc2ccccc21)C(=O)N[C@H](C(=O)N[C@@H](Cc1c[nH]c2ccccc12)C(=O)O)[C@@H](C)CC [Example 1, Ac-D-Bhg-Leu-Asp-Ile-Ile-Trp] (HELM PEPTIDE1{[ac].[O=C([C@H](N[*:1])C1c2ccccc2CCc2ccccc21)[*:2]].L.D.I.I.W}$$$$V2.0)	19 nM	210 nM
CC[C@H](C)[C@H](NC(=O)[C@H](CC(=O)O)NC(=O)[C@H](CC(C)C)NC(=O)[C@H](NC(C)=O)C1c2ccccc2CCc2ccccc21)C(=O)N(C)[C@H](C(=O)N[C@@H](Cc1c[nH]c2ccccc12)C(=O)O)[C@@H](C)CC [Example 19, Ac-D-Bhg-Leu-Asp-Ile-N-MeIle-Trp] (HELM PEPTIDE1{[ac].[O=C([C@H](N[*:1])C1c2ccccc2CCc2ccccc21)[*:2]].L.D.I.[meI].W}$$$$V2.0)	40 nM	25 nM
